The target of experiment [1] is COUP transcription factor 2 (Homo sapiens, UniProt P24468). The experiment is described as follows: Luminescence-based cell-based high throughput dose response assay to identify inhibitors of COUP-TFII (NR2F2). In kind it is functional.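 Note: HEK293 cells transiently cotransfected with COUP-TFII expression vector and reporter; luciferase reporter luminescence driven by COUP-TFII from the pX2-168 reporter plasmid.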
A short description of experiment [2]: HEK293 cell viability loss – plate reader, cherry-pick, cytotoxicity control, dose response (AID 651899). It counts as functional, cell-based.
The target in experiment [3] is Adenosylmethionine-8-amino-7-oxononanoate aminotransferase (Mycobacterium tuberculosis, UniProt P9WQ81). In words: Mycobacterium tuberculosis BioA enzyme inhibitor Measured in Biochemical System Using Plate Reader - 2163-02_Inhibitor_Dose_CherryPick_Activity. In kind it is functional, Mycobacterium tuberculosis UT205.
Experiment [4] relates to HEK293. The experiment is described as follows: viability loss in HEK293T cells – cell-based, ATP luminescence, cherry-pick samples, cytotoxicity control, dose response (AID 687005).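 Note: cells exposed to compound for 48 hours.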 It counts as functional. The note with it: Homo sapiens.
A short description of experiment [5]: HEK293 Cytotoxicity Assay Measured in Cell-Based System Using Plate Reader - 7071-01_Inhibitor_Dose_CherryPick_Activity_Set2. It counts as functional.
In experiment [6] the target is T1, Heat shock factor protein 1 (Mus musculus, UniProt P38532).
T1 sequence (P38532 whole entry): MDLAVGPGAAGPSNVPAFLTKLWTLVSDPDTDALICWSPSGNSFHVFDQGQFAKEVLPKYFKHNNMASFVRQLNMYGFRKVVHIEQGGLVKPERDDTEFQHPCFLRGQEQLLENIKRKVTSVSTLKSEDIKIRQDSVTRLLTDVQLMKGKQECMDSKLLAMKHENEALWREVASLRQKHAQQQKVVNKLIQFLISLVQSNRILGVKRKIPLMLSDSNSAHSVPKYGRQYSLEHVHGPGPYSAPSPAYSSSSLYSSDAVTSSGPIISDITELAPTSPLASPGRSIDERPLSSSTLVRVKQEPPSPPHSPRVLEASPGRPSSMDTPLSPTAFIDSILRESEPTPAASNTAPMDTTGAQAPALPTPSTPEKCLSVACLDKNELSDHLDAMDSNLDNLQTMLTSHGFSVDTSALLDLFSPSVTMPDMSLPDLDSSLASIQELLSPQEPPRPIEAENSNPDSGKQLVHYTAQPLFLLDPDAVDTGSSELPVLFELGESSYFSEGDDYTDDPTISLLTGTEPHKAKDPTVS
In words: decrease of HSF1-responsive luciferase luminescence – cell-based, NIH3T3, dose retest, confirmation (AID 2382).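 Note: NIH3T3 fibroblasts with HSF1-driven luciferase reporter stressed by proteasome inhibitor MG132; luminescence from HSF1-driven luciferase expression after 8 hours of MG132 stress.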 It counts as functional.

In experiment [7] the target is T2, Microphthalmia-associated transcription factor (Homo sapiens, UniProt O75030).
T2 sequence (O75030 whole entry): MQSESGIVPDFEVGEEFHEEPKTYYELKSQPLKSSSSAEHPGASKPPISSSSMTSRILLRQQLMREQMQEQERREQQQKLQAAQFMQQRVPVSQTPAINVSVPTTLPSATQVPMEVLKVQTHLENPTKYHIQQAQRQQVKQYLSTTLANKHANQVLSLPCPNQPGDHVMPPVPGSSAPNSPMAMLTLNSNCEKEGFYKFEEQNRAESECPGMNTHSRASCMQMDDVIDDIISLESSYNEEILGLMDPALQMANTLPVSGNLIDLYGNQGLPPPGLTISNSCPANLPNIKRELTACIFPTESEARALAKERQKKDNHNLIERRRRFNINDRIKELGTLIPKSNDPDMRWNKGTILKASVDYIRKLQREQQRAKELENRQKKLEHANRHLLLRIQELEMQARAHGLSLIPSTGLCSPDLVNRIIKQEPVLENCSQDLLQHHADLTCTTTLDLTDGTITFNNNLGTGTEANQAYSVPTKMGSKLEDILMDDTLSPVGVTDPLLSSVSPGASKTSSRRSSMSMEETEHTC
The experiment is described as follows: reducers of TRPM1 reporter luminescence, concentration series – cell-based, SK-MEL-5, cherry-picked, set 3, MITF inhibitor project, dose response (AID 493073).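 Note: SK-MEL-5 melanoma cells with luciferase driven by the MITF target TRPM1 promoter.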 It counts as functional.

The nature of experiment [8]: reduction of Shn3 3'UTR-driven luciferase in osteoblasts – cell-based, Clone20 osteoblasts, firefly luciferase, cherry-picked, dose response (AID 624132).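 Note: firefly luciferase luminescence from reporter carrying the Shn3 3'UTR in osteoblasts.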 It counts as functional.
The nature of experiment [9]: Shn3 3'UTR reporter signal decrease – cell-based, Clone20 osteoblasts, firefly luciferase, cherry-pick, set 2, Schnurri-3 inhibitor project, dose response (AID 720490).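 Note: actives lower the luminescence signal as inhibitors.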 In kind it is functional.
Experiment [10] in a line: A549 cell cytotoxicity, dose response, cytotoxicity control, plate reader, cherry-pick, antagonist series (AID 743412). In kind it is functional, cell-based.
A short description of experiment [11]: toxicity toward HepG2 liver cells – cell-based, plate reader, cherry-pick, antagonist series, cytotoxicity control, dose response (AID 743416). In kind it is functional.
A short description of experiment [12]: blockers of bursicon-stimulated LGR2 cAMP reporter – cell-based, HEK293, CRE-luciferase reporter, cherry pick, set 2, dose response (AID 743343).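 Note: transfected cells were stimulated with diluted bursicon conditioned medium after compound addition.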 It counts as functional. In general terms: Reporter assays use an easily measured gene product as a stand-in for the process of interest.
The nature of experiment [13]: blockade of melanocortin 4 receptor signaling – cell-based, plate reader, cherry pick, counter-screen for LGR2 antagonist project, dose response (AID 743444).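 Note: transfected HEK 293 cells stimulated with alpha-MSH peptide; potency of inhibitors of the alpha-MSH evoked signal.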 In kind it is functional. A general note: A counterscreen serves to expose hits that act by an unwanted route or on another target.
Experiment [14] can be described thus: viability loss in HEK293 cells – cell-based, plate reader, cherry-picked samples, cytotoxicity control, dose response (AID 743446). It counts as functional.
In experiment [15] the test system is Streptococcus sp. 'group A'. In words: Streptococcus pyogenes SK(-)GAS viability under kanamycin – luminescence, BacTiterGlo, confirmation, counter-screen for streptokinase expression inhibitor project, dose response (AID 1900). It counts as functional, organism-based.
In experiment [16] the target is T3, Streptokinase A (Streptococcus pyogenes serotype M1, UniProt P10520).
T3 sequence (P10520 whole entry): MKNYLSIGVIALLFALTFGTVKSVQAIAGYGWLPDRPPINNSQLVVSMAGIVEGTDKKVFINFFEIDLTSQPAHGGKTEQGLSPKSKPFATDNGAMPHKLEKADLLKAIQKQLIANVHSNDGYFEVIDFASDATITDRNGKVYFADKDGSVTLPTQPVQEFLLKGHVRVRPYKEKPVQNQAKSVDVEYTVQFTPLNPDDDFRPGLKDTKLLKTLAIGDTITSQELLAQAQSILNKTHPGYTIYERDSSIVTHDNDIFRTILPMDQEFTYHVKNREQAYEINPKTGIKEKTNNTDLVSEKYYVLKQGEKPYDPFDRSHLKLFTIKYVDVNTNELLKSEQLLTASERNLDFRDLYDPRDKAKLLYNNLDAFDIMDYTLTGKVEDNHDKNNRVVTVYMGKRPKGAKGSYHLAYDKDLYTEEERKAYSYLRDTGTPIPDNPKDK
The experiment is described as follows: viability-normalized secreted streptokinase activity reduction – plasminogen activation absorbance, OD405, dose response (AID 1914).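 Note: secreted streptokinase activity via plasminogen activation per viability signal from cell pellet.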 It counts as functional, Streptococcus pyogenes M1 GAS.

Experiment [17] is described as follows: Trypanosoma cruzi growth suppression in host cells – NIH3T3 host cells, beta-gal luminescence, confirmation (AID 2044).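 Note: intracellular parasites grown in NIH/3T3 mouse fibroblasts as host cells; luminescent beta-galactosidase reporter signal from transgenic T. cruzi replicating inside host cells; inhibitors lower the luminescence signal.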 It counts as functional, cell-based.
Experiment [18] in a line: NIH3T3 cell viability loss – ATP luminescence, mouse fibroblasts, counter-screen, dose response (AID 2010).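 Note: cells exposed to compound for about 90 hours before reading.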 It counts as functional, cell-based.
The test system of experiment [19] is Streptococcus. In words: GAS UMAA2166 growth inhibition – luminescence, BacTiterGlo, counter-screen for streptokinase expression inhibitor project, dose response (AID 1915).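 Note: potency for reduction of bacterial viability or growth.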 In kind it is functional, organism-based.
Experiment [20] is described as follows: Luminescence Cell-Based Dose Retest to Confirm Inhibitors of Cancer Stem Cells. [Related pubchem assays (depositor defined):AID2717, AID2721]. The note with it: Homo sapiens. It counts as functional.
The target of experiment [21] is Disintegrin and metalloproteinase domain-containing protein 17 (Homo sapiens, UniProt P78536). The experiment is described as follows: inhibition of ADAM17 substrate cleavage – biochemical, quenched FRET substrate, counter-screen for ADAM10 exosite inhibitor project, dose response (AID 743253).
Experiment [22] can be described thus: Late stage assay provider results from the probe development effort to identify inhibitors of the Plasmodium falciparum M18 Aspartyl Aminopeptidase (M18AAP): radiolabel-based cell-based dose response assay to identify compounds that inhibit P. falciparum growth in RBCs, Set 2.. In kind it is functional.

Drawing on ChEMBL document CHEMBL1201862, “PubChem BioAssay data set” (2004), this text covers IC50, AC50 and EC50 for five compounds.

Calls of active or inactive are those of the source. Some results are limits rather than exact numbers.

Disintegrin and metalloproteinase domain-containing protein 17, sequence (P78536 whole entry, the tested form may be a part): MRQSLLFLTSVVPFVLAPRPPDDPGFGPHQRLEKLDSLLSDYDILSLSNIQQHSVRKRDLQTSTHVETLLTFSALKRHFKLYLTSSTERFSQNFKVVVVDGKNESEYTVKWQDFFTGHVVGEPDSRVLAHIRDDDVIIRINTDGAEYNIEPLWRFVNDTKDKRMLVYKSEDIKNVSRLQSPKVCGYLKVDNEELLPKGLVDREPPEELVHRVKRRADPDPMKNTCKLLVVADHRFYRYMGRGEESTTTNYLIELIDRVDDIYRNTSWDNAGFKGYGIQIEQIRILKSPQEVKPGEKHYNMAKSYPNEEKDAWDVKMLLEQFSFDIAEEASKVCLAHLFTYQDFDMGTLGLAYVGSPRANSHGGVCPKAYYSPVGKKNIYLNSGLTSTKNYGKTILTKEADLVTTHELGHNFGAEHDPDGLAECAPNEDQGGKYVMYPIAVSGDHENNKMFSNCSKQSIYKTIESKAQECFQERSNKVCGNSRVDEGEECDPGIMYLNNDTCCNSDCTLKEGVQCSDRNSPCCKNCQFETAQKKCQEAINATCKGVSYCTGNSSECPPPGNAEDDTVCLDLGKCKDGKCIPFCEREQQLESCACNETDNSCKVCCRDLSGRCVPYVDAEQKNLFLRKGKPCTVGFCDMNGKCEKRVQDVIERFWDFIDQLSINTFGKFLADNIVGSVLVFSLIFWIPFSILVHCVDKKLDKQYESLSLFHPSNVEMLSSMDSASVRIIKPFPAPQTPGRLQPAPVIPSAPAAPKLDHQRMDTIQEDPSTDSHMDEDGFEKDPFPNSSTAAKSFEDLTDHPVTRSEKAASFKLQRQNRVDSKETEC
Adenosylmethionine-8-amino-7-oxononanoate aminotransferase, sequence (P9WQ81 whole entry): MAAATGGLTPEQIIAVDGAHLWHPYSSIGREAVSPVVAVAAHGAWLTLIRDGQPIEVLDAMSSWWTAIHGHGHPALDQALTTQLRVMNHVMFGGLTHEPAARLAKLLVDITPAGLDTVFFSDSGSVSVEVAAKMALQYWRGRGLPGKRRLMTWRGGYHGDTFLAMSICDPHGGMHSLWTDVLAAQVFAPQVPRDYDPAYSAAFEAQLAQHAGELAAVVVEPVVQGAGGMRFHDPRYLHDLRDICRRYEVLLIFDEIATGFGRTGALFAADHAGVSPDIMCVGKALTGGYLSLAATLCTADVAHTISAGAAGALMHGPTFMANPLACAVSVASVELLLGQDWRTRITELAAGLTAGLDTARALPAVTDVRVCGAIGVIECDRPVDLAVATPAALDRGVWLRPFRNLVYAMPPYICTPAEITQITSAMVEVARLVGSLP
COUP transcription factor 2, sequence (P24468 whole entry): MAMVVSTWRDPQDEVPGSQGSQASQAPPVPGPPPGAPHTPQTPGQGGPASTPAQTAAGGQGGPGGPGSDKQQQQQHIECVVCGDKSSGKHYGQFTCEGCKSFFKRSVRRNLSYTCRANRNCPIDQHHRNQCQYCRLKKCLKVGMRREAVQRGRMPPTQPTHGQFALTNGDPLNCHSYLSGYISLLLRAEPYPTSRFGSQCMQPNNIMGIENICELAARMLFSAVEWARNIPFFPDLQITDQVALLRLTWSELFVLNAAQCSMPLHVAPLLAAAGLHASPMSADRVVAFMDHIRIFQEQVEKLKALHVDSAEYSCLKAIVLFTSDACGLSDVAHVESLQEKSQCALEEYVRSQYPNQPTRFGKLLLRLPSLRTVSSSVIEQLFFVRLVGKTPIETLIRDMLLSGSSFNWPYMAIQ

`C=CCC1(CC=C)CCCN1C(=O)c1cc(COc2ccc(-n3cncn3)cc2)on1`: the IC50 in experiment [1] is 7.88 µM (active).

As to `CC(=O)c1ccc(N2CCN(C(=O)Cc3cccs3)CC2)cc1`, the AC50 was 3.82 µM (active) in [2], 11.6 µM (active) in experiment [3], > 52 µM (inactive) in experiment [4] and > 52 µM (inactive) in experiment [5].

`O=C(O)c1cccc(COc2ccccc2Cl)c1`: in experiment [6], the EC50 is 1.06 µM (active). The AC50 in [7] was 0.756 µM (active); in [8], 1.48 µM (active); in experiment [9] it was 4.74 µM (active); in experiment [10] it was > 52 µM (inactive); in [11], > 52 µM (inactive); in experiment [12], 0.517 µM (active). Also, the figures for the AC50 in [13] and in [14] were 0.488 µM (active) and > 52 µM (inactive), respectively.

With `O=C(Nc1cccc(S(=O)(=O)Nc2ccc(Cl)cc2)c1)c1cc2c(s1)CCCC2`, the EC50 in [15] was 2.51 µM (active); in [16], 5.01 µM (active); in experiment [17], 1.09 µM (active); in experiment [18], 10.9 µM (active); in [19], 1.98 µM (active). The half-maximal activity concentration (AC50) in experiment [20] was 2.28 µM (active). The IC50 in [21] is > 69.5 µM (inactive).

For the compound `COc1ccc(CCNc2cncc3ccccc23)cc1OC`, the IC50 in [22] was 4.5 µM (active).

As usually defined, the IC50 is the concentration that inhibits the measured activity by half. Broadly, the AC50 is the concentration at which the activity in the assay is half-maximal. What is called EC50 is the concentration needed to bring the measured effect to its halfway point.
